Reference: US20250296971A1, “GASTRIC INHIBITORY PEPTIDE RECEPTOR LIGANDS” (priority 2021, published 2025)
Where two headings read alike, the source gives them in different places. *1 amine or outer side, *2 acyl side, *3 side chain or, on linkers, in order; H or OH if unused. Where a SMILES comes first, the peptide text is derived from it. Bridges are numbered along the chain shown (N, C = ends). [ ]: non-standard residue; d: D form. The star is where a group is joined. X3 = O=C(O)CN1CCN(CC(=O)O)CCN(CC(=O)NCCCOCCOCCOCCCN*)CCN(CC(=O)O)CC1; DOTA = O=C(O)CN1CCN(CC(=O)O)CCN(CC(=O)*)CCN(CC(=O)O)CC1; Trp(5-Br) = N[C@@H](Cc1c[nH]c2ccc(Br)cc12)C(=O)O; Trp(5-Cl) = N[C@@H](Cc1c[nH]c2ccc(Cl)cc12)C(=O)O; Pyridine(2,6-diCH2) = c1cc(C[*:1])nc(C[*:2])c1; Trp(6-F) = N[C@@H](Cc1c[nH]c2cc(F)ccc12)C(=O)O; Pro(4,4-F2) = O=C(O)[C@@H]1CC(F)(F)CN1; 1Nal = N[C@@H](Cc1cccc2ccccc12)C(=O)O; mXylylene = c1cc(C[*:1])cc(C[*:2])c1; X7 = c1cc(CSCCN[*:2])cc(C[*:1])c1; Hyp = O=C(O)[C@@H]1C[C@@H](O)CN1; Suc = O=C(CCC(=O)[*:2])[*:1]; Api = NC1(C(=O)O)CCNCC1; Thp = NC1(C(=O)O)CCOCC1; Aib = CC(C)(N)C(=O)O

Target: T1, GIPR (CHO-K1-hGIPR cells) (Homo sapiens, UniProt P48546)
T1 construct: host or cells: CHO-K1
T1 sequence (P48546 22-466): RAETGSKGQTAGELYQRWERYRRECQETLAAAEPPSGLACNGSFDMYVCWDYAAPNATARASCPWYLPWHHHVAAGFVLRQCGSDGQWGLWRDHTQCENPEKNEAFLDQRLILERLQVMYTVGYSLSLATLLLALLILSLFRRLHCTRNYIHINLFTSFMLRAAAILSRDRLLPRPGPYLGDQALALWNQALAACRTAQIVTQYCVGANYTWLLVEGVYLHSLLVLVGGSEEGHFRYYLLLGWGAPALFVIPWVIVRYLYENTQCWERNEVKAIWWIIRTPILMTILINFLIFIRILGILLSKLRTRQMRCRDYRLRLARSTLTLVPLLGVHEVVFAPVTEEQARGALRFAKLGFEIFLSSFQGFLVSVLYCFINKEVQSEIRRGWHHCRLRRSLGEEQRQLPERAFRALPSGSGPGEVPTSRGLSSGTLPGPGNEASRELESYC
Assay: FACS binding assay
Settings: read-out: pIC50 Category (converted)
Procedure, shortened: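 Peptide binding read by flow cytometry as APC-channel median fluorescence, fitted with a four-parameter logistic to yield EC50 or IC50. Cells were hGIPR-transfected CHO-K1 in PBS with 1% FCS, detected with 1 μg/mL APC-streptavidin, 30 min on ice.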

[1] = competition with 20 nM GIP-057, 4° C., 1 hour
[2] = competition with 20 nM GIP-057, 4° C. for 1 hour

Compound	IC50 [1] [nM]	IC50 [2] [nM]
CC[C@H](C)[C@@H]1NC(=O)[C@H](CC(C)C)NC(=O)C(C)(C)NC(=O)[C@@H](NC(=O)[C@@H](CC(C)C)NC(=O)[C@H](CCC(=O)O)NC(=O)[C@@H]2CCCN2C(=O)[C@H](Cc2c[nH]c3ccc(Br)cc23)NC(=O)[C@H](Cc2c[nH]c3cc(F)ccc23)NC(=O)[C@H](CC(=O)O)NC(=O)CCC(=O)NCCCOCCOCCOCCCNC(=O)CN2CCN(CC(=O)O)CCN(CC(=O)O)CCN(CC(=O)O)CC2)CSCc2cccc(c2)CSCCNC1=O [GIP-105, DOTA-Ttds-Asp-6Fw-5Brw-Pro-Glu-leu-[Cys(3MeBn)-Aib-Leu-Ile-AET]] ({X3-Suc}-D[Trp(6-F)][Trp(5-Br)]PE[dL]C[Aib]LI; linker 7-C via X7)	< 10	
CC(=O)N[C@@H](CC(=O)O)C(=O)N[C@@H](Cc1c[nH]c2ccccc12)C(=O)N[C@@H](Cc1c[nH]c2ccc(Cl)cc12)C(=O)N1C[C@H](O)C[C@H]1C(=O)N[C@@H](CCC(=O)O)C(=O)N[C@H](CC(C)C)C(=O)N[C@H]1CSCc2cccc(n2)CSC[C@@H](C(N)=O)NC(=O)[C@H](CCC(=O)O)NC(=O)[C@H](CC(C)C)NC(=O)C2(CCOCC2)NC1=O [GIP-354, Ac-Asp-Trp-5Clw-Hyp-Glu-leu-[Cys(2Lut)-Thp-Leu-Glu-Cys]-NH2] (Ac-DW[Trp(5-Cl)][Hyp]E[dL]C[Thp]LEC-NH2; linker 7-11 via Pyridine(2,6-diCH2))		> 1000
CC[C@H](C)[C@@H]1NC(=O)[C@H](CC(C)C)NC(=O)C2(CCOCC2)NC(=O)[C@@H](NC(=O)[C@@H](CC(C)C)NC(=O)[C@H](C)NC(=O)[C@@H]2C[C@@H](O)CN2C(=O)[C@H](Cc2c[nH]c3ccc(Cl)cc23)NC(=O)[C@H](Cc2c[nH]c3ccccc23)NC(=O)[C@H](CC(=O)O)NC(C)=O)CSCc2cccc(n2)CSC[C@@H](C(N)=O)NC1=O [GIP-386, Ac-Asp-Trp-5Clw-Hyp-Ala-leu-[Cys(2Lut)-Thp-Leu-Ile-Cys]-NH2] (Ac-DW[Trp(5-Cl)][Hyp]A[dL]C[Thp]LIC-NH2; linker 7-11 via Pyridine(2,6-diCH2))		< 10
CC[C@H](C)[C@@H]1NC(=O)[C@H](CC(C)C)NC(=O)C2(CCN(C(=O)CN3CCN(CC(=O)O)CCN(CC(=O)O)CCN(CC(=O)O)CC3)CC2)NC(=O)[C@@H](NC(=O)[C@@H](CC(C)C)NC(=O)[C@H](CCC(=O)O)NC(=O)[C@@H]2CCCN2C(=O)[C@H](Cc2c[nH]c3ccc(Cl)cc23)NC(=O)[C@H](Cc2c[nH]c3ccccc23)NC(=O)[C@H](CC(=O)O)NC(=O)CCC(=O)NCCCOCCOCCOCCCNC(=O)CN2CCN(CC(=O)O)CCN(CC(=O)O)CCN(CC(=O)O)CC2)CSCc2cccc(c2)CSCCNC1=O [GIP-053, DOTA-Ttds-Asp-Trp-5Clw-Pro-Glu-leu-[Cys(3MeBn)-Apc(DOTA)-Leu-Ile-AET]] ({X3-Suc}-DW[Trp(5-Cl)]PE[dL]C[Api](DOTA)LI; linker 7-C via X7)	< 10	
CC[C@H](C)[C@@H]1NC(=O)[C@H](CC(C)C)NC(=O)C2(CCOCC2)NC(=O)[C@@H](NC(=O)[C@@H](CC(C)C)NC(=O)[C@H](CC(N)=O)NC(=O)[C@@H]2C[C@@H](O)CN2C(=O)[C@H](Cc2c[nH]c3ccc(Cl)cc23)NC(=O)[C@H](Cc2c[nH]c3ccccc23)NC(=O)[C@H](CC(=O)O)NC(C)=O)CSCc2cccc(n2)CSC[C@@H](C(N)=O)NC1=O [GIP-205, Ac-Asp-Trp-5Clw-Hyp-Asn-leu-[Cys(2Lut)-Thp-Leu-Ile-Cys]-NH2] (Ac-DW[Trp(5-Cl)][Hyp]N[dL]C[Thp]LIC-NH2; linker 7-11 via Pyridine(2,6-diCH2))	< 10	
CC[C@H](C)[C@@H]1NC(=O)[C@H](CC(C)C)NC(=O)C(C)(C)NC(=O)[C@@H](NC(=O)[C@H](CC(C)C)NC(=O)[C@H](CCC(=O)O)NC(=O)[C@@H]2CC(F)(F)CN2C(=O)[C@H](Cc2cccc3ccccc23)NC(=O)[C@H](Cc2c[nH]c3ccccc23)NC(=O)[C@H](CC(=O)O)NC(C)=O)CSCc2cccc(c2)CSC[C@@H](C(N)=O)NC1=O [GIP-341, Ac-Asp-Trp-1Ni-4Dfp-Glu-Leu-[Cys(3MeBn)-Aib-Leu-Ile-Cys]-NH2] (Ac-DW[1Nal][Pro(4,4-F2)]ELC[Aib]LIC-NH2; linker 7-11 via mXylylene)		> 1000
